According to US9302999B2, “Substituted triazoles as herbicides” (E. I. DU PONT DE NEMOURS AND COMPANY, priority 2012, dated 2016):

Experiments:
Type in all cases: in vivo
[1] = tested on: barnyardgrass (Echinochloa crus-galli); test: Test A pre-/postemergence: barnyardgrass
Outline: (§1)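 Pre: directed soil spray after planting in loam + sand. Post: same formulation (non-phytotoxic solvent + surfactant) on 1–2-leaf plants, 2–10 cm. Greenhouse ~10 d; visual injury 0–100 vs untreated.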

[2] = tested on: morningglory (Ipomoea spp.); test: Test A pre-/postemergence: morningglory
Outline: as §1

[3] = tested on: pigweed (Amaranthus retroflexus); test: Test A pre-/postemergence: pigweed
Outline: as §1

[4] = tested on: wheat (Triticum aestivum); test: Test A pre-/postemergence: wheat
Outline: as §1

corn (Zea mays) = test: Test A pre-/postemergence: corn
Outline: as §1

[5] = tested on: blackgrass (Alopecurus myosuroides); test: Test C pre-/postemergence: blackgrass
Outline: (§2)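 Visual injury scored 0–100 (100 = complete control) against untreated controls after 13–15 greenhouse days. Surfactant-containing solvent formulations applied either to soil after sowing (loam/sand) or over 1- to 4-leaf plants, 2–18 cm tall.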

[6] = tested on: ryegrass, Italian (Italian ryegrass, Lolium multiflorum); test: Test C pre-/postemergence: ryegrass, Italian
Outline: as §2

[7] = tested on: winter wheat (Triticum aestivum); test: Test C pre-/postemergence: winter wheat
Outline: as §2

[8] = tested on: foxtail, giant (giant foxtail, Setaria faberii); test: Test C pre-/postemergence: foxtail, giant
Outline: as §2

[9] = tested on: morningglory (Ipomoea coccinea); test: Test C pre-/postemergence: morningglory
Outline: as §2

[10] = tested on: nutsedge, yellow (yellow nutsedge, Cyperus esculentus); test: Test C pre-/postemergence: nutsedge, yellow
Outline: as §2

[11] = Postemergence, 125 g ai/ha, 0 to 100 scale, 0 is no effect, 100 is complete control
[12] = Postemergence, 500 g ai/ha, 0 to 100 scale, 0 is no effect, 100 is complete control
[13] = Preemergence, 125 g ai/ha, 0 to 100 scale where 0 is no effect and 100 is complete control
[14] = Preemergence, 500 g ai/ha, 0 to 100 scale (0 no effect, 100 complete control)
[15] = Postemergence, 31 g ai/ha, scale 0 to 100 (0 no effect, 100 complete control)
[16] = Postemergence, 62 g ai/ha, scale 0 to 100 (0 no effect, 100 complete control)
[17] = Postemergence, 125 g ai/ha, scale 0 to 100, 0 no effect, 100 complete control
[18] = Postemergence, 250 g ai/ha, scale 0 to 100
[19] = Preemergence, 31 g ai/ha, scale 0 (no effect) to 100 (complete control)
[20] = Preemergence, 62 g ai/ha, scale of 0 to 100, 0 is no effect, 100 is complete control
[21] = Preemergence, 125 g ai/ha, scale 0 to 100, 0 no effect, 100 complete control
[22] = Preemergence, 250 g ai/ha, scale 0 to 100, 0 no effect, 100 complete control
[23] = Postemergence, 250 g ai/ha, scale 0 to 100 (0 no effect, 100 complete control)

Question: Which “Plant response rating, Barnyardgrass” value [1, 11] does the source give for `CCCc1nn(-c2ccc(C(F)(F)F)c(F)c2)nc1Oc1ccnc(C(F)(F)F)c1` [Compound 185] here?
Answer: 70

Question: What about the “Barnyardgrass plant response rating” value [1, 12] of the same compound?
Answer: 90

Question: What about the “Plant response rating, Barnyardgrass” value [1, 13] of the same compound?
Answer: 100

Question: What about the “Plant response rating, Barnyardgrass” value [1, 14] of the same compound?
Answer: 100

Question: And the “Plant response rating, Morningglory” value [2, 11]?
Answer: 100

Question: And the “Morningglory plant response rating” value [2, 12]?
Answer: 100

Question: And the “Plant response rating, Morningglory” value [2, 13]?
Answer: 60

Question: What about the “Plant response rating, Morningglory” value [2, 14] of the same compound?
Answer: 100

Question: What about the “Plant response rating, Pigweed” value [3, 11] of the same compound?
Answer: 100

Question: What about the “Pigweed plant response rating” value [3, 12] of the same compound?
Answer: 100

Question: What about the “Plant response rating, Pigweed” value [3, 13] of the same compound?
Answer: 100

Question: And the “Plant response rating, Pigweed” value [3, 14]?
Answer: 100

Question: And the “Plant response rating, Wheat” value [4, 11]?
Answer: 20

Question: And the “Wheat plant response rating” value [4, 12]?
Answer: 40

Question: What about the “Plant response rating, Wheat” value [4, 13] of the same compound?
Answer: 30

Question: What about the “Plant response rating, Wheat” value [4, 14] of the same compound?
Answer: 50

Question: And the “Plant response rating, Corn” value (corn (Zea mays); [11])?
Answer: 20

Question: What about the “Corn plant response rating” value (corn (Zea mays); [12]) of the same compound?
Answer: 50

Question: And the “Plant response rating, Corn” value (corn (Zea mays); [13])?
Answer: 10

Question: What about the “Plant response rating, Corn” value (corn (Zea mays); [14]) of the same compound?
Answer: 30

Question: What about the “Plant response rating, Blackgrass” value [5, 15] of the same compound?
Answer: 20

Question: What about the “Plant response rating, Blackgrass” value [5, 16] of the same compound?
Answer: 40

Question: What about the “Plant response rating, Blackgrass” value [5, 17] of the same compound?
Answer: 50

Question: What about the “Plant response rating, Blackgrass” value [5, 18] of the same compound?
Answer: 50

Question: And the “Plant response rating, Blackgrass” value [5, 19]?
Answer: 90

Question: And the “Plant response rating, Blackgrass” value [5, 20]?
Answer: 95

Question: What about the “Plant response rating, Blackgrass” value [5, 21] of the same compound?
Answer: 95

Question: What about the “Plant response rating, Blackgrass” value [5, 22] of the same compound?
Answer: 98

Question: What about the “Plant response rating, Ryegrass, Italian” value [6, 15] of the same compound?
Answer: 10

Question: What about the “Plant response rating, Ryegrass, Italian” value [6, 16] of the same compound?
Answer: 10

Question: What about the “Plant response rating, Ryegrass, Italian” value [6, 17] of the same compound?
Answer: 25

Question: And the “Plant response rating, Ryegrass, Italian” value [6, 23]?
Answer: 35

Question: And the “Plant response rating, Ryegrass, Italian” value [6, 19]?
Answer: 90

Question: And the “Plant response rating, Ryegrass, Italian” value [6, 20]?
Answer: 100

Question: And the “Plant response rating, Ryegrass, Italian” value [6, 21]?
Answer: 100

Question: What about the “Plant response rating, Ryegrass, Italian” value [6, 22] of the same compound?
Answer: 100

Question: And the “Plant response rating, Wheat” value [7, 15]?
Answer: 5

Question: What about the “Plant response rating, Wheat” value [7, 16] of the same compound?
Answer: 15

Question: And the “Plant response rating, Wheat” value [7, 17]?
Answer: 15

Question: And the “Plant response rating, Wheat” value [7, 23]?
Answer: 20

Question: What about the “Plant response rating, Wheat” value [7, 19] of the same compound?
Answer: 10

Question: And the “Plant response rating, Wheat” value [7, 20]?
Answer: 40

Question: What about the “Plant response rating, Wheat” value [7, 21] of the same compound?
Answer: 40

Question: What about the “Plant response rating, Wheat” value [7, 22] of the same compound?
Answer: 55

Question: What about the “Plant response rating, Foxtail, Giant” value [8, 15] of the same compound?
Answer: 40

Question: And the “Plant response rating, Foxtail, Giant” value [8, 16]?
Answer: 80

Question: What about the “Plant response rating, Foxtail, Giant” value [8, 17] of the same compound?
Answer: 90

Question: What about the “Plant response rating, Foxtail, Giant” value [8, 18] of the same compound?
Answer: 98

Question: What about the “Plant response rating, Foxtail, Giant” value [8, 19] of the same compound?
Answer: 100

Question: And the “Plant response rating, Foxtail, Giant” value [8, 20]?
Answer: 100

Question: What about the “Plant response rating, Foxtail, Giant” value [8, 21] of the same compound?
Answer: 100

Question: What about the “Plant response rating, Foxtail, Giant” value [8, 22] of the same compound?
Answer: 100

Question: And the “Plant response rating, Morningglory” value [9, 15]?
Answer: 90

Question: What about the “Plant response rating, Morningglory” value [9, 16] of the same compound?
Answer: 98

Question: And the “Plant response rating, Morningglory” value [9, 17]?
Answer: 100

Question: What about the “Plant response rating, Morningglory” value [9, 23] of the same compound?
Answer: 100

Question: What about the “Plant response rating, Morningglory” value [9, 19] of the same compound?
Answer: 45

Question: And the “Plant response rating, Morningglory” value [9, 20]?
Answer: 55

Question: What about the “Plant response rating, Morningglory” value [9, 21] of the same compound?
Answer: 70

Question: And the “Plant response rating, Morningglory” value [9, 22]?
Answer: 100

Question: And the “Plant response rating, Nutsedge, Yellow” value [10, 15]?
Answer: 10

Question: What about the “Plant response rating, Nutsedge, Yellow” value [10, 16] of the same compound?
Answer: 10

Question: And the “Plant response rating, Nutsedge, Yellow” value [10, 17]?
Answer: 10

Question: And the “Plant response rating, Nutsedge, Yellow” value [10, 23]?
Answer: 15

Question: What about the “Plant response rating, Nutsedge, Yellow” value [10, 19] of the same compound?
Answer: 0

Question: And the “Plant response rating, Nutsedge, Yellow” value [10, 20]?
Answer: 0

Question: And the “Plant response rating, Nutsedge, Yellow” value [10, 21]?
Answer: 0

Question: And the “Plant response rating, Nutsedge, Yellow” value [10, 22]?
Answer: 5
